Measured values taken from patent publication US9392789B2, “Compositions of dibromomalonamide and their use as biocides” (Dow Global Technologies LLC, priority 2009, dated 2016).
Values joined by “and” are separate entries in the source; they are usually repeats but may differ in a detail not shown here. Equal values may be shown once.

System: mixture of Pseudomonas aeruginosa, Klebsiella pneumoniae, Staphylococcus aureus, and Bacillus subtilis
Test: Growth inhibition assay (microtiter plate-based synergy assay)
Assay type: cell-based
Details: 24 h; for I90 value: single active, concentration for ~90% inhibition of growth
Description: Growth Inhibition Assay. […] Regardless of the mechanism of action, the impact of a biocide (or combination of biocides) can be measured over time on the basis of an increase in the size of the community.
The assay measures the efficacy of one or more biocides at preventing growth of a consortium of bacteria in a dilute mineral salts medium. The medium contains (in mg/l) the following components: FeCl3.6H2O (1); CaCl2.2H2O (10); MgSO4.7H2O (22.5); (NH4)2SO4 (40); KH2PO4 (10); K2HPO4 (25.5); Yeast Extract (10); and glucose (100). After all components are added to deionized water, the pH of the medium is adjusted to 7.5. Following filter sterilization, aliquots are dispensed in 100 ul quantities to sterile microtiter plate wells. Dilutions of 2,2-dibromomalonamide (“DBMAL”) and/or “Biocide B” are then added to the microtiter plate. After preparing the combinations of actives as illustrated below, each well is inoculated with 100 μl of a cell suspension containing ca. 1×10^6 cells per milliliter of a mixture of Pseudomonas aeruginosa, Klebsiella pneumoniae, Staphylococcus aureus, and Bacillus subtilis. The final total volume of medium in each well is 300 μl. Once prepared as described herein, the concentration of each active ranges from 25 ppm to 0.195 ppm as illustrated in Table 1. The resulting matrix allows testing of eight concentrations of each active and 64 combinations of actives in the ratios (of actives).
Controls (not shown) contain the medium with no biocide added. After preparing the combinations of actives as illustrated above, each well is inoculated with 100 μl of a cell suspension containing ca. 1×10^6 cells per milliliter of a mixture of Pseudomonas aeruginosa, Klebsiella pneumoniae, Staphylococcus aureus, and Bacillus subtilis. The final total volume of medium in each well is 300 μl.
Immediately after the microtiter plates are prepared, the optical density (OD) readings for each well is measured at 580 nm and the plates are then incubated at 37° C. for 24 hr. After the incubation period, the plates are gently agitated before OD580 values are collected. The OD580 values at T0 are subtracted from T24 values to determine the total amount of growth (or lack thereof) that occurs. These values are used to calculate the percent inhibition of growth caused by the presence of each biocide and each of the 64 combinations. A 90% inhibition of growth is used as a threshold for calculating synergy index (SI) values with the following equation: Synergy Index=MDBMAL/CDBMAL+MB/CB
where • CDBMAL: Concentration of DBMAL required to inhibit ˜90% of bacterial growth when used alone • CB: Concentration of biocide (B) required to inhibit ˜90% of bacterial growth when used alone. • MDBMAL: Concentration of DBMAL required to inhibit ˜90% of bacterial growth when used in combination with biocide (B). • MB: Concentration of biocide (B) required to inhibit ˜90% of bacterial growth when used in combination with DBMAL The SI values are interpreted as follows: • SI<1: Synergistic combination • SI=1: Additive combination • SI>1: Antagonistic combination
In the Examples below, the amounts of biocides in the solution are measured in mg per liter of solution (mg/l). Since solution densities are approximately 1.00, the mg/l measurement corresponds to weight ppm. Both units may therefore be used interchangeably in the Examples.

Row | Structure (SMILES) | % Inhibition of growth (single active at 0.19 mg/l) [%] | % Inhibition of growth (single active at 0.39 mg/l) | % Inhibition of growth (single active at 0.78 mg/l) [%] | % Inhibition of growth (single active at 1.56 mg/l) [%] | % Inhibition of growth (single active at 3.13 mg/l) [%] | % Inhibition of growth (single active at 6.25 mg/l) [%] | % Inhibition of growth (single active at 12.5 mg/l) | % Inhibition of growth (single active at 25.0 mg/l) [%] | inhibition at 12.5 µg/mL (single active at 12.5 mg/l) [%] | inhibition at 25 µg/mL (single active at 25.0 mg/l) [%] | I90 value [mg/L] | inhibition at 7.81 µg/mL (single active at 7.81 mg/l) [%] | inhibition at 15.63 µg/mL (single active at 15.63 mg/l) [%] | inhibition at 31.25 µg/mL (single active at 31.25 mg/l) [%] | inhibition at 62.5 µg/mL (single active at 62.5 mg/l) [%] | inhibition at 125 µg/mL (single active at 125 mg/l) [%] | inhibition at 250 µg/mL (single active at 250 mg/l) [%] | inhibition at 500 µg/mL (single active at 500 mg/l) [%] | inhibition at 1000 µg/mL (single active at 1,000 mg/l) [%]
1 | CC1(C)C(=O)N(Cl)C(=O)N1Br [BCDMH, bromochlorodimethylhydantoin] | 0 | 0% | 5 | 0 | 2 | 100 | 98% | 99 |  |  |  |  |  |  |  |  |  |  | 
2 | [O][Cl+][O-] [ClO2, chlorine dioxide] | 12 | 26% | 35 | 63 | 75 | 99 | 100% | 98 |  |  |  |  |  |  |  |  |  |  | 
3 | NC(=O)C(Br)(Br)C(N)=O [DBMAL, 2,2-dibromomalonamide] |  | 4% and 0% and 5% and 8% and 2% |  |  |  | 9 | 99% and 92% |  | 100 | 98 | 12.5 |  |  |  |  |  |  |  | 
4 | O=c1nc([O-])n(Cl)c(=O)n1Cl.[Na+] [DCI, dichloroisocyanurate] | 0 | 0% | 0 | 98 | 100 | 97 | 100% | 100 |  |  |  |  |  |  |  |  |  |  | 
5 | OO [H2O2, hydrogen peroxide] |  |  |  |  |  |  |  |  |  |  |  | 5 | 2 | 0 | 12 | 6 | 1 | 100 | 89
6 | OBr [HOBr, hypobromous acid] | 0 | 0% | 0 | 0 | 22 | 57 | 99% | 100 |  |  |  |  |  |  |  |  |  |  | 
7 | NCl [NH2Cl, monochloramine] | 4 | 0% | 2 | 97 | 96 | 94 | 97% | 95 |  |  | 1.56 |  |  |  |  |  |  |  | 
8 | O=c1n(Cl)c(=O)n(Cl)c(=O)n1Cl [TCI, trichloroisocyanurate] | 0 | 0% | 0 | 97 | 96 | 99 | 97% | 94 |  |  |  |  |  |  |  |  |  |  | 
